Data from patent US5039791A, “Peptide fragments of tissue plasminogen activator” (Monsanto Company, priority 1989, dated 1991).
Entries after “also recorded” stand apart in the source; their conditions may differ. Where no end group is shown, it is not given here.

Columns and labels:
fibrin = target: T1, fibrin (Homo sapiens, UniProt P02671+P02675+P02679); experiment: Fibrin binding: binding of tPA to fibrin, tPA antigen in supernatant by ELISA; conditions: 15 μg/ml peptide; 200 ng/ml single chain melanoma tPA, 200 μg/ml human fibrinogen; no peptide = 48
T1 construct: purchased Kabi Vitrum
T1 sequence (P02671 20-644 isoform P02671-2 limits assumed): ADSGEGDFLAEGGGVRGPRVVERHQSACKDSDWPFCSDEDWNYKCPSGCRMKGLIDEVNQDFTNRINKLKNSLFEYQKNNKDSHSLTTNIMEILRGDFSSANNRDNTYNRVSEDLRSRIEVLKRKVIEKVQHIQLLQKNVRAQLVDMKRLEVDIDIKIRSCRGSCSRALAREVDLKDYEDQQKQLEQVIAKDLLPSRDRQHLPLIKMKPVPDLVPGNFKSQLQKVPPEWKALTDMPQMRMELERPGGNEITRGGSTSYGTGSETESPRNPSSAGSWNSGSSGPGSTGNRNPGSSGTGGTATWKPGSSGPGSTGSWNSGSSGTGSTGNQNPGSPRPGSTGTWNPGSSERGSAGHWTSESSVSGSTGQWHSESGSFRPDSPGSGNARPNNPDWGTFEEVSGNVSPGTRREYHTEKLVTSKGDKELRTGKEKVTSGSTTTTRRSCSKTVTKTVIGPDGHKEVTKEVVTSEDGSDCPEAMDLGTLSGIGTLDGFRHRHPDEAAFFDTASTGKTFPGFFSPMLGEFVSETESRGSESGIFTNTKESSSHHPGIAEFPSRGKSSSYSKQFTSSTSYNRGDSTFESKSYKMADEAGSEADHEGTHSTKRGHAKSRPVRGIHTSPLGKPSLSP
T1 sequence (P02675 45-491 limits assumed): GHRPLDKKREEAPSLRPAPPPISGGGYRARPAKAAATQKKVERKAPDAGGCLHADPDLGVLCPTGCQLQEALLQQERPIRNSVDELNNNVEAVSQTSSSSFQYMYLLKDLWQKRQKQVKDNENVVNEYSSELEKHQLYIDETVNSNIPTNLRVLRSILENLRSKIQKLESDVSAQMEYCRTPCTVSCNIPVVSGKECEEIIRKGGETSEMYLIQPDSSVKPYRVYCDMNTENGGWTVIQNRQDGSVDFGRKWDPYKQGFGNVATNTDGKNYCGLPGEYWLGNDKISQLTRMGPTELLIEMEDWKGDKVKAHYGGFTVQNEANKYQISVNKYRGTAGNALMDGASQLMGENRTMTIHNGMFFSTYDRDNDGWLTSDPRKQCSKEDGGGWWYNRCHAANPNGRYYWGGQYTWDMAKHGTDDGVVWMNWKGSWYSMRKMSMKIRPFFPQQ
T1 sequence (P02679 27-437 isoform P02679-2 limits assumed): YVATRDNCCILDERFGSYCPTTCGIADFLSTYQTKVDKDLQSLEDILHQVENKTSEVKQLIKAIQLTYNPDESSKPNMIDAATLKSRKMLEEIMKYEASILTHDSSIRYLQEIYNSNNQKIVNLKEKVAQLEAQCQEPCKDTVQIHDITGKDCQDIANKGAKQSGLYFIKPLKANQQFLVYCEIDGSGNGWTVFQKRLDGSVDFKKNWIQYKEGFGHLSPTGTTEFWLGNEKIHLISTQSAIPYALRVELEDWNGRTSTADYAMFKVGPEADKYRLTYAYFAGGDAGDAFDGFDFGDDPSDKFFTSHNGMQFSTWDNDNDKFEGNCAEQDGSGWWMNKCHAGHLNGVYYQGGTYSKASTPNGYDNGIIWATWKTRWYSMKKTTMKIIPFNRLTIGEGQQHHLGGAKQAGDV
Description: Binding of tPA to fibrin was measured using the conventional method of Rijken et al., J. Biol. Chem. 257, 2920-2925 (1982). This method involves mixing thrombin with a solution containing tPA and fibrinogen, centrifuging the resulting clot and measuring the concentration of tPA antigen in the supernatant. In a final volume of 200 μl, the following were combined: 200 ng/ml single chain melanoma tPA, 200 μg/ml human fibrinogen, 15 μg/ml tPA peptide, 1.1 mg/ml bovine serum albumin, 0.55 mg/ml bovine gamma globulin and 10 mM ε-amino caproic acid in PBSAT. Controls omitted fibrinogen, peptide or both. Mixtures were clotted by the addition of 1 unit/ml bovine thrombin, incubated one hour at room temperature and centrifuged. tPA antigen in the supernatant was measured by conventional ELISA and the percentage bound calculated by difference using the antigen level of a control mixture with no fibrinogen as 0% bound. […] An ELISA assay kit for tPA and PAI-1 was purchased from American Diagnostica Inc. and assays were performed according to printed protocols supplied by the manufacturer with the kit except that a single lot of melanoma tPA from American Diagnostica Inc. (product 111, lot 47-01) was used as the antigen standard throughout this work and 5.0 mg/ml of BSA and 2.5 mg/ml of bovine gamma globulin were included in ELISA buffers.

[1] = test system: human umbilical vein endothelial cells; experiment: Endothelial cell binding assay: binding of [125I]-tPA to endothelial cells; conditions: for inhibition of binding of tPA to endothelial cells (FIG. 3): 15 μg/ml peptide, about 20 ng/ml [125I]-tPA, 4° C., 90 minutes; for dose response of inhibition of binding of tPA to endothelial cells (FIG. 4): several peptide concentrations
Description: Peptides from FIG. 1 were examined for their ability to inhibit the binding of [^125 I]-tPA to human umbilical vein endothelial cells. Assays were performed as described under Materials and Methods, below, using a final peptide concentration of 15 μg/ml. All samples were assayed in duplicate. Bar height represents the result obtained for one duplicate point and the corresponding error bar represents the result obtained for the other. Results are shown in percent inhibition of binding.
Assays examining the binding of [^125 I]-tPA to endothelial cells were performed by a conventional method essentially as described by Hajjar et al., J. Clin. Invest. 80, 1712-1719 (1987), and Beebe, Thromb. Res. 46, 241-254 (1987). Briefly, cells were grown to confluence in 24-well dishes using MCDB107 growth medium supplemented with 180 μg/ml heparin, 30 μg/ml ECGS, 100 μg/ml gentamicin and 10% fetal bovine serum. Immediately prior to assay, plates were chilled to 4° C. and all wells were aspirated. Cells were washed 3 times with binding buffer (PBS, pH 7.2, 5.0 mg/ml BSA, 10 mM glucose, 0.01% Tween 80). Five hundred μl of buffer containing approximately 20 ng/ml of [^125 I]-tPA and a test sample of peptide was then added. Incubations proceeded at 4° C. for 90 minutes. At the end of the incubation time, cells were washed rapidly 4 times with 500 μl aliquots of binding buffer. Cells were separated from the plates using 3% sodium dodecylsulfate (SDS) and the amount of radioactivity present was determined. Nonspecific binding was determined by carrying out incubations in the presence of an excess (2.0 μg/ml) of unlabeled tPA.
The peptides shown in Table 1 were examined for their effect on the binding of tPA to cultured human umbilical vein endothelial cells. […] All points were run in duplicate and nonspecific binding was subtracted in each case.

Row | % Bound (binding of tPA to fibrin) (fibrin) [%] | Substance | inhibition of binding of tPA to endothelial cells (FIG. 3) [1] | dose response of inhibition of binding of tPA to endothelial cells (FIG. 4) [1]
1 | 57 | LGKHNYCRNPDGDAKPWCHVLKNRR-amide (LGKHNYCRNPDGDAKPWCHVLKNRR-NH2; cysteine pairing not given here) [Peptide 166, 25 amino acid synthetic peptide amide fragment of native human tPA] | effective at inhibiting the binding of tPA to cells | –
2 | 53 | NPDRDSKPWCYVFKAGKYSSEFCST-amide (NPDRDSKPWCYVFKAGKYSSEFCST-NH2; cysteine pairing not given here) [Peptide 158, 25 amino acid synthetic peptide amide fragment of native human tPA] | inhibited the binding of tPA to endothelial cells; also recorded: more effective at inhibiting endothelial cell binding relative to the other active peptides | concentration dependent manner
3 | 50 | VPVKSCSEPRCFNGGTCQQALYFSD-amide (VPVKSCSEPRCFNGGTCQQALYFSD-NH2; cysteine pairing not given here) [Peptide 148, 25 amino acid synthetic peptide amide fragment of native human tPA] | inhibited the binding of tPA to endothelial cells | concentration dependent manner
